Results: US7265103B2, “Substituted amino isoxazoline derivatives and their use as anti-depressants” (Janssen Pharmaceutica NV., priority 2002, dated 2007)
pIC50: −log10 of the molar value.

Legend:
h5-HT transporter = target: T1, h5-HT transporter (Homo sapiens, UniProt P31645); assay: Radioligand binding experiment for 5-HT transporter ([3H]paroxetine); conditions: human platelet membranes, [3H]paroxetine 0.5 nM
T1 construct: Human platelet membranes (Oceanix Biosciences Corporation, Hanover, Md., USA) were thawed; tissue Oceanix Biosciences Corporation; host or cells: human platelet membranes
Procedure: (§1) The interaction of the compounds of Formula (I) with hα2-receptors and h5-HT-transporters was assessed in in vitro radioligand binding experiments. In general, a low concentration of a radioligand with a high binding affinity for a particular receptor or transporter is incubated with a sample of a tissue preparation enriched in a particular receptor or transporter or with a preparation of cells expressing cloned human receptors in a buffered medium. During the incubation, the radioligand binds to the receptor or transporter. When equilibrium of binding is reached, the receptor bound radioactivity is separated from the non-bound radioactivity, and the receptor- or transporter-bound activity is counted. The interaction of the test compounds with the receptor is assessed in competition binding experiments. Various concentrations of the test compound are added to the incubation mixture containing the receptor- or transporter preparation and the radioligand. The test compound in proportion to its binding affinity and its concentration inhibits binding of the radioligand. The radioligand used for hα2A, hα2B and hα2C receptor binding was [^3H]-raulwolscine and for the h5-HT transporter was [^3H]paroxetine.
Human platelet membranes (Oceanix Biosciences Corporation, Hanover, Md., USA) were thawed, diluted in buffer (Tris-HCl 50 mM, 120 mM NaCl and 5 mM KCl) and quickly (max 3 s) homogenised with an Ultraturrax homogenizer. In a total volume of 250 μL, 50-100 μg protein was incubated with [^3H]paroxetine (NET-869) (New England Nuclear, USA) (0.5 nM final concentration) with or without competitor for 60 min at 25° C. Incubation was stopped by rapid filtration of the incubation mixture over GF/B filters, pre-wetted with 0.1% polyethyleneamine, using a Filtermatel 96 harvester (Packard, Meriden, Conn.). Filters were rinsed extensively with ice-cold buffer and radioactivity on the filters was counted in a Topcount liquid scintillation counter (Packard, Meriden, Conn.). Data were expressed as cpm. Imipramine (at 1 μM final concentration) was used to determine the non-specific binding.
(§2) Data from assays in the presence of compound were calculated as a percentage of total binding measured in the absence of test compound. Inhibition curves, plotting percent of total binding versus the log value of the concentration of the test compound, were automatically generated, and sigmoidal inhibition curves were fitted using non-linear regression. The pIC50 values of test compounds were derived from individual curves.

hα2C receptor = target: T2, hα2C receptor (Homo sapiens, UniProt P18825); assay: Radioligand binding experiment for α2C-adrenergic receptor ([3H]-raulwolscine); conditions: CHO cell membranes with human α2C receptor, [3H]raulwolscine 1 nM; read-out: pIC50 α2C (converted)
T2 construct: expressed in transfected cells; host or cells: CHO cells
T2 sequence (P18825 1-462): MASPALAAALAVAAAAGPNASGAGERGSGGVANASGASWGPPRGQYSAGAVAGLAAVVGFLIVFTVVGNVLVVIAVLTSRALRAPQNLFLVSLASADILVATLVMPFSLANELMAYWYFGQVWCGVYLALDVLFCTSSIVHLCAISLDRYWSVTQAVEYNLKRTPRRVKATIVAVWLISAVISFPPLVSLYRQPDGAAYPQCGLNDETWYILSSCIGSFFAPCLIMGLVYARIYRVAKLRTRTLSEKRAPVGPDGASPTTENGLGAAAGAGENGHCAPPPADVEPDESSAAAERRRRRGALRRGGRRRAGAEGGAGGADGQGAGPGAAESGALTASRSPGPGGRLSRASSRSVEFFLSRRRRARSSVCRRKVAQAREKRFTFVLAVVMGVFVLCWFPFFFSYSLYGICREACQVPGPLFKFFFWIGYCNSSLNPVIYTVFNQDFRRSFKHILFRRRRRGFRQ
Procedure: as §1
(§3) CHO cells, stabile transfected with human adrenergic-α2A-, -α2B or α2C receptor cDNA, were cultured in Dulbecco's Modified Eagle's Medium (DMEM)/Nutrient mixture Ham's F12 (ratio 1:1)(Gibco, Gent-Belgium) supplemented with 10% heat inactivated fetal calf serum (Life Technologies, Merelbeke-Belgium) and antibiotics (100 IU/ml penicillin G, 100 μg/ml streptomycin sulphate, 110 μg/ml pyruvic acid and 100 μg/ml L-glutamine). One day before collection, cells were induced with 5 mM sodiumbutyrate. Upon 80-90% of confluence, cells were scraped in phosphate buffered saline without Ca^2+ and Mg^2+ and collected by centrifugation at 1500×g for 10 min. The cells were homogenised in Tris-HCl 50 mM using an Ultraturrax homogenizer and centrifuged for 10 min at 23,500×g. The pellet was washed once by resuspension and rehomogenization and the final pellet was resuspended in Tris-HCl, divided in 1 ml aliquots and stored at −70° C.
(§4) Membranes were thawed and re-homogenized in incubation buffer (glycylglycine 25 mM, pH 8.0). In a total volume of 500 μl, 2-10 μg protein was incubated with [^3H]raulwolscine (NET-722) (New England Nuclear, USA) (1 nM final concentration) with or without competitor for 60 min at 25° C. followed by rapid filtration over GF/B filter using a Filtermatel 96 harvester (Packard, Meriden, Conn.). Filters were rinsed extensively with ice-cold rinsing buffer (Tris-HCl 50 mM pH 7.4). Filter-bound radioactivity was determined by scintillation counting in a Topcount (Packard, Meriden, Conn.) and results were expressed as counts per minute (cpm). Non-specific binding was determined in the presence of 1 μM oxymetazoline for hα2A- and hα2B receptors and 1 μM spiroxatrine for hα2C receptors.
as §2

hα2A receptor = target: T3, hα2A receptor (Homo sapiens, UniProt P08913); assay: Radioligand binding experiment for α2A-adrenergic receptor ([3H]-raulwolscine); conditions: CHO cell membranes with human α2A receptor, [3H]raulwolscine 1 nM; read-out: pIC50 α2A (converted)
T3 construct: expressed in transfected cells; host or cells: CHO cells
T3 sequence (P08913 1-465): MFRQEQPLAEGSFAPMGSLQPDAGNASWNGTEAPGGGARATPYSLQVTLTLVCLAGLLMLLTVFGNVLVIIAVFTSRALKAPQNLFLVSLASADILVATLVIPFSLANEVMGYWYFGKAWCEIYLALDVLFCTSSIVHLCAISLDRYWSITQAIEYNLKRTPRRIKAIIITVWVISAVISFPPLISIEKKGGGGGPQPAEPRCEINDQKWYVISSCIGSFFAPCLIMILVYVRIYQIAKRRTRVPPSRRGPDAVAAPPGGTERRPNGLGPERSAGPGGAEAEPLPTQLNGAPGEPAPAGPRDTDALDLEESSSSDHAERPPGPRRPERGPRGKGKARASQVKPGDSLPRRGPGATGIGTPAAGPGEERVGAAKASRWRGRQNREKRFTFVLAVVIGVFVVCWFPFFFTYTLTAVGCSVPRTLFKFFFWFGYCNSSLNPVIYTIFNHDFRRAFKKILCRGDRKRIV
Procedure: as §1, §3, §4, §2

T1 sequence (P31645 whole entry): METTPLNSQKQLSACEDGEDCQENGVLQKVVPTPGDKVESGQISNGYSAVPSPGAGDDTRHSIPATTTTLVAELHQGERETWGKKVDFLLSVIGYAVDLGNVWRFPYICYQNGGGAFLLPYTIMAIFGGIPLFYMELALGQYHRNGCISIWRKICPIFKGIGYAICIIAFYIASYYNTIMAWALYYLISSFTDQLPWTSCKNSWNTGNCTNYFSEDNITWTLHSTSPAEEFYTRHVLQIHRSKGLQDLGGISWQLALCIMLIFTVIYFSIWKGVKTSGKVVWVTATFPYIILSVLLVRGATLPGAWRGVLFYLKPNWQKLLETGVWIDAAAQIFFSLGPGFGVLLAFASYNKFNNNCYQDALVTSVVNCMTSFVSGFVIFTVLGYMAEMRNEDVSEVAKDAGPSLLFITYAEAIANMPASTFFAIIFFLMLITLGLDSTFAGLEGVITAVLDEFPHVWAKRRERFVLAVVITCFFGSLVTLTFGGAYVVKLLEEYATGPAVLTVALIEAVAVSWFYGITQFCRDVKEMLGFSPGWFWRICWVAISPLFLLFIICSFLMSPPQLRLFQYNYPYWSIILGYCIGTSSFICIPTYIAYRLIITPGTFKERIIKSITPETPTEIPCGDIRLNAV

SMILES | pIC50 (h5-HT transporter) | IC50 (hα2C receptor) | IC50 (hα2A receptor)
CC(=Cc1ccc(F)cc1)CN1CCN(CC2ON=C3c4ccc(N(C)CCO)cc4OCC32)CC1 (stereo not drawn) [Compound 38] | 7.90 | 1.58 nM | 79.4 nM
CCC(CC)Nc1cc2c(cc1OC)C1=NOC(CN3CCN(CC(C)=Cc4ccc(F)cc4)CC3)C1CO2 (stereo not drawn) [Compound 98] | 6.60 | 100 nM | 126 nM
CC(=Cc1ccccc1)CN1CCN(CC2ON=C3c4ccc(N(C)Cc5ccccc5)cc4OCC32)CC1 (stereo not drawn) [Compound 47] | 7.30 | 3.16 nM | 2.51 nM
C=CCN(C)CCN(C)c1ccc2c(c1)OCC1C2=NOC1CN1CCN(CC(C)=Cc2ccc(F)cc2)CC1 (stereo not drawn) [Compound 121] | 6.80 | 100 nM | 501 nM
CC(=Cc1ccccc1)CN1CCN(CC2ON=C3c4ccc(NC(=O)c5cccnc5)cc4OCC32)CC1 (stereo not drawn) [Compound 67] | 7.90 | 1.26 nM | 2 nM
CCN(CC)CCN(C)c1ccc2c(c1)OCC1C2=NOC1CN1CCN(CC(C)=Cc2ccc(F)cc2)CC1 (stereo not drawn) [Compound 25] | 8.10 | 0.398 nM | 6.31 nM
COc1cc2c(cc1NC(=O)Nc1ccccc1)OCC1C2=NOC1CN1CCN(CC(C)=Cc2ccc(F)cc2)CC1 (stereo not drawn) [Compound 124] | 7.30 | 158 nM | 316 nM
CNc1ccc2c(c1)OCC1C2=NOC1CN1CCN(CC(C)=Cc2ccccc2)CC1 (stereo not drawn) [Compound 87] | 7.30 | 3.16 nM | 2.51 nM
C=CC(=O)Nc1cc2c(cc1OC)C1=NOC(CN3CCN(CC(C)=Cc4ccc(F)cc4)CC3)C1CO2 (stereo not drawn) [Compound 106] | 7.50 | 12.6 nM | 6.31 nM
COc1cc2c(cc1Nc1ccncc1)OCC1C2=NOC1CN1CCN(CC(C)=Cc2ccc(F)cc2)CC1 (stereo not drawn) [Compound 100] | 8.00 | 5.01 nM | 10 nM
COc1cc2c(cc1N1CCOCC1)OCC1C2=NOC1CN1CCN(CC(C)=Cc2ccc(F)cc2)CC1 (stereo not drawn) [Compound 85] | 7.20 | 3.16 nM | 10 nM
COc1cc2c(cc1N1CCC1=O)OCC1C2=NOC1CN1CCN(CC(C)=Cc2ccc(F)cc2)CC1 (stereo not drawn) [Compound 107] | 7.30 | 10 nM | 7.94 nM
CCNC(=O)Nc1ccc2c(c1)OCC1C2=NOC1CN1CCN(CC(C)=Cc2ccccc2)CC1 (stereo not drawn) [Compound 59] | 8.00 | 1.26 nM | 7.94 nM
CCCC(C)C(=O)Nc1cc2c(cc1OC)C1=NOC(CN3CCN(CC(C)=Cc4ccc(F)cc4)CC3)C1CO2 (stereo not drawn) [Compound 113] | 7.20 | 39.8 nM | 79.4 nM
COc1cc2c(cc1NCCN1CCCC1)OCC1C2=NOC1CN1CCN(CC(C)=Cc2cccc(F)c2)CC1 (stereo not drawn) [Compound 27] | 8.30 | 3.16 nM | 15.8 nM
